In ChEMBL document CHEMBL1201862, “PubChem BioAssay data set” (2004):
“And” between values parts separate entries of the source, which are not always exact repeats. Identical values can stand only once.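 Grown in 96-well plates, cells were treated for 48 hours with each compound at five concentrations. Insufficient inhibition: endpoint recorded as highest concentration tested. GI50: concentration for 50% inhibition of growth.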 The source made the active and inactive calls. Cut-off read from the data, not from the text of the source: active = GI50 up to about 1.1 µM and inactive = higher.

Experiments:
Experiment in all cases: NCI tumour cell line growth inhibition, 48 h
A549 = test system: A549
NCI-H460 = test system: NCI-H460
SN12C = test system: SN12C
SF-268 = test system: SF-268
NCI-H23 = test system: NCI-H23
M14 = test system: M14
COLO 205 = test system: COLO 205
U-251 = test system: U-251
EKVX = test system: EKVX
786-0 = test system: 786-0
HL-60 = test system: HL-60
MOLT-4 = test system: MOLT-4
HT-29 = test system: HT-29
DLD-1 = test system: DLD-1
MCF7 = test system: MCF7
NCI/ADR-RES = test system: NCI/ADR-RES
SK-MEL-5 = test system: SK-MEL-5
NCI-H522 = test system: NCI-H522
T47D = test system: T47D
BT-549 = test system: BT-549

SMILES | GI50 (A549) | GI50 (NCI-H460) | GI50 (SN12C) | GI50 (SF-268) | GI50 (NCI-H23) | GI50 (M14) | GI50 (COLO 205) | GI50 (U-251) | GI50 (EKVX) | GI50 (786-0) | GI50 (HL-60) | GI50 (MOLT-4) | GI50 (HT-29) | GI50 (DLD-1) | GI50 (MCF7) | GI50 (NCI/ADR-RES) | GI50 (SK-MEL-5) | GI50 (NCI-H522) | GI50 (T47D) | GI50 (BT-549)
CCOC(=O)C(=O)C1C(=O)Nc2ccccc21 (stereo unspecified) | > 100 µM (inactive) | > 100 µM (inactive) | > 100 µM (inactive) | > 100 µM (inactive) | > 100 µM (inactive) | > 100 µM (inactive) | > 100 µM (inactive) | > 100 µM (inactive) | > 100 µM (inactive) | > 100 µM (inactive) | > 100 µM (inactive) | > 100 µM (inactive) | > 100 µM (inactive) | > 100 µM (inactive) | – | – | – | – | – | –
O=c1/c(=C/c2ccc([N+](=O)[O-])o2)sc2n1[C@@H](c1ccc3c(c1)OCO3)C=C(c1cc(F)c(Cl)cc1Cl)N=2 | 16.4 µM (inactive) | 17.8 µM (inactive) | 18 µM (inactive) | 28.7 µM (inactive) | 20.6 µM (inactive) | 13.9 µM (inactive) | 18.7 µM (inactive) | 19.9 µM (inactive) | 16.6 µM (inactive) | 9.51 µM (inactive) | 15.6 µM (inactive) | 8.91 µM (inactive) | 17.1 µM (inactive) | – | 10 µM (inactive) | 34.4 µM (inactive) | 10.3 µM (inactive) | 25.8 µM (inactive) | 17.3 µM (inactive) | 16.8 µM (inactive)
CCCCCC(/C=C/C1CCC(=O)C1)OCOCCOC (stereo unspecified) | 59.7 µM (inactive) | 67.9 µM (inactive) | 57.5 µM (inactive) | 29.3 µM (inactive) | 55.2 µM (inactive) | 34 µM (inactive) | 48.8 µM (inactive) | 38.1 µM (inactive) | 54.1 µM (inactive) | 19.3 µM (inactive) | 42.1 µM (inactive) | 15.8 µM (inactive) | 23.4 µM (inactive) | – | 33.5 µM (inactive) | 30 µM (inactive) | 47.8 µM (inactive) | 17.1 µM (inactive) | 52.1 µM (inactive) | 27.9 µM (inactive)
CC(=O)c1c(C)[n+]([O-])c2cc(Cl)c(Cl)cc2[n+]1[O-] | 19.2 µM (inactive) | 12 µM (inactive) | 20.2 µM (inactive) | 28.3 µM (inactive) | 26.4 µM (inactive) | 24.6 µM (inactive) | 15.7 µM (inactive) | 21.8 µM (inactive) | 28.6 µM (inactive) | 27.5 µM (inactive) | 10.4 µM (inactive) | 8.22 µM (inactive) | 18.5 µM (inactive) | – | 14.8 µM (inactive) | 16.7 µM (inactive) | 11.6 µM (inactive) | 12.6 µM (inactive) | 12.7 µM (inactive) | 15.6 µM (inactive)
COC(=O)[C@H](Cc1ccccc1)NC(=O)[C@H](Cc1ccccc1)NC(=O)CN1C(=O)[C@@H]2C3C=CC(C3)[C@@H]2C1=O | 22 µM (inactive) and 21.1 µM (inactive) | 21.2 µM (inactive) and 20.6 µM (inactive) | 18.2 µM (inactive) and 16.7 µM (inactive) | 13.2 µM (inactive) and 17.7 µM (inactive) | 17.6 µM (inactive) and 17.2 µM (inactive) | 19.9 µM (inactive) and 18.6 µM (inactive) | 17.1 µM (inactive) and 15.8 µM (inactive) | 16.4 µM (inactive) and 17.6 µM (inactive) | 19.8 µM (inactive) and 18.7 µM (inactive) | 15.5 µM (inactive) and 14.2 µM (inactive) | 11 µM (inactive) | 3.32 µM (inactive) and 2.26 µM (inactive) | 19.2 µM (inactive) and 20 µM (inactive) | – | 18.5 µM (inactive) and 17.8 µM (inactive) | 33 µM (inactive) and 22.2 µM (inactive) | 18.2 µM (inactive) and 15 µM (inactive) | 16 µM (inactive) and 14.1 µM (inactive) | 21.9 µM (inactive) and 21.7 µM (inactive) | 16.6 µM (inactive) and 18.2 µM (inactive)
Cc1ccc(S(=O)(=O)NNS(C)(=O)=O)cc1 | > 100 µM (inactive) | > 100 µM (inactive) | > 100 µM (inactive) | > 100 µM (inactive) | > 100 µM (inactive) | > 100 µM (inactive) | > 100 µM (inactive) | > 100 µM (inactive) | > 100 µM (inactive) | > 100 µM (inactive) | – | > 100 µM (inactive) | > 100 µM (inactive) | > 100 µM (inactive) | – | – | > 100 µM (inactive) | > 100 µM (inactive) | – | –
Clc1ccc(-c2nn3c(COc4cccc(OCc5nnc6sc(-c7ccc(Cl)cc7)nn56)c4)nnc3s2)cc1 | 25.8 µM (inactive) | 31 µM (inactive) | 12.6 µM (inactive) | 21.7 µM (inactive) | 22.3 µM (inactive) | 27.4 µM (inactive) | 29.2 µM (inactive) | 24.3 µM (inactive) | 21.3 µM (inactive) | 15.1 µM (inactive) | 21.5 µM (inactive) | 14.3 µM (inactive) | 24.5 µM (inactive) | – | 14.1 µM (inactive) | 36.9 µM (inactive) | 15.2 µM (inactive) | 22.8 µM (inactive) | 17.3 µM (inactive) | 30.7 µM (inactive)
Cc1ccc(NC(=S)C#N)c(C)c1 | > 100 µM (inactive) | > 89.7 µM (inactive) | > 100 µM (inactive) | > 87.3 µM (inactive) | > 69.5 µM (inactive) | 97.3 µM (inactive) | > 84.1 µM (inactive) | > 86.3 µM (inactive) | > 93.5 µM (inactive) | > 100 µM (inactive) | 20.5 µM (inactive) | 28.8 µM (inactive) | > 91.2 µM (inactive) | – | > 69.5 µM (inactive) | 75.7 µM (inactive) | 51.9 µM (inactive) | 46.7 µM (inactive) | 46 µM (inactive) | 54.1 µM (inactive)
COc1ccc(N2C(=O)c3c(c4[nH]c5ccccc5c4c4ccc(C(C)(C)C)cc34)C2=O)cc1 | 47.1 µM (inactive) | 40.4 µM (inactive) | 64 µM (inactive) | 29.2 µM (inactive) | 20 µM (inactive) | 40.3 µM (inactive) | 37.3 µM (inactive) | 22.8 µM (inactive) | 64 µM (inactive) | 28.4 µM (inactive) | – | 21.6 µM (inactive) | – | > 100 µM (inactive) | – | – | > 100 µM (inactive) | 33.2 µM (inactive) | – | –
CCn1cc(C(=O)O)c(=O)c2cc3c(cc21)S(=O)(=O)CC3 | > 100 µM (inactive) | > 100 µM (inactive) | > 100 µM (inactive) | > 100 µM (inactive) | > 100 µM (inactive) | > 100 µM (inactive) | > 100 µM (inactive) | 24.2 µM (inactive) | > 100 µM (inactive) | > 100 µM (inactive) | > 100 µM (inactive) | > 100 µM (inactive) | > 100 µM (inactive) | – | > 100 µM (inactive) | > 100 µM (inactive) | > 100 µM (inactive) | > 100 µM (inactive) | > 100 µM (inactive) | > 100 µM (inactive)
O=C(O)CCCSc1nc2ccccc2s1 | > 100 µM (inactive) | > 100 µM (inactive) | > 100 µM (inactive) | > 100 µM (inactive) | > 100 µM (inactive) | > 100 µM (inactive) | > 100 µM (inactive) | > 100 µM (inactive) | > 100 µM (inactive) | > 100 µM (inactive) | > 100 µM (inactive) | > 100 µM (inactive) | > 100 µM (inactive) | – | > 100 µM (inactive) | > 100 µM (inactive) | > 100 µM (inactive) | > 100 µM (inactive) | > 100 µM (inactive) | > 100 µM (inactive)
CC1CNC(c2ccc(COc3ccc(C4=NC(C)CN4)cc3)cc2)=N1 (stereo unspecified) | 21.2 µM (inactive) | 23.4 µM (inactive) | 17.6 µM (inactive) | 54.3 µM (inactive) | 53.3 µM (inactive) | 60.1 µM (inactive) | > 100 µM (inactive) | 28.5 µM (inactive) | > 100 µM (inactive) | > 100 µM (inactive) | > 100 µM (inactive) | > 100 µM (inactive) | > 100 µM (inactive) | – | 18.3 µM (inactive) | > 100 µM (inactive) | 28.6 µM (inactive) | 39 µM (inactive) | 15.5 µM (inactive) | > 100 µM (inactive)
Clc1ccc(CCN(CCc2ccc(Cl)c(Cl)c2)CCN2CCCC2)cc1Cl | 1.74 µM (inactive) | 1.86 µM (inactive) | 1.87 µM (inactive) | 1.73 µM (inactive) | 1.82 µM (inactive) | 1.67 µM (inactive) | 1.89 µM (inactive) | 1.6 µM (inactive) | 2.05 µM (inactive) | 1.76 µM (inactive) | 1.39 µM (inactive) | 1.79 µM (inactive) | 1.68 µM (inactive) | – | 1.51 µM (inactive) | 1.75 µM (inactive) | 1.81 µM (inactive) | 1.64 µM (inactive) | 3.27 µM (inactive) | 2.04 µM (inactive)
O=C1CC(Br)c2c(Cl)sc(Cl)c21 (stereo unspecified) | 18.3 µM (inactive) | 18.2 µM (inactive) | 14.1 µM (inactive) | 6.58 µM (inactive) | 16.4 µM (inactive) | 9.75 µM (inactive) | 12.1 µM (inactive) | 3.37 µM (inactive) | 17.5 µM (inactive) | 3.04 µM (inactive) | 2.13 µM (inactive) | 1.94 µM (inactive) | 11.4 µM (inactive) | – | 3.66 µM (inactive) | 24 µM (inactive) | 17.6 µM (inactive) | 17 µM (inactive) | 4.18 µM (inactive) | 20.8 µM (inactive)
CN(C)CCNc1ccc2ncnc3c2c1C(=O)c1ccccc1-3 | 0.274 µM (active) | 0.443 µM (active) | 0.332 µM (active) | 0.513 µM (active) | 0.655 µM (active) | 0.314 µM (active) | 0.433 µM (active) | 0.49 µM (active) | 0.343 µM (active) | 0.215 µM (active) | 2.58 µM (inactive) | 0.0769 µM (active) | 0.463 µM (active) | – | 0.406 µM (active) | 0.357 µM (active) | 0.759 µM (active) | 0.232 µM (active) | 0.619 µM (active) | 5.32 µM (inactive)
